Measured values: ChEMBL document CHEMBL1142256, “Phosphoramidate derivatives of hydroxysteroids as inhibitors of prostate-specific membrane antigen” (Bioorg Med Chem Lett, 2008)

Target: Glutamate carboxypeptidase 2 (Homo sapiens, UniProt Q04609)
Experiment: Inhibition of human PSMA

Sequence of Glutamate carboxypeptidase 2 (Q04609 whole entry): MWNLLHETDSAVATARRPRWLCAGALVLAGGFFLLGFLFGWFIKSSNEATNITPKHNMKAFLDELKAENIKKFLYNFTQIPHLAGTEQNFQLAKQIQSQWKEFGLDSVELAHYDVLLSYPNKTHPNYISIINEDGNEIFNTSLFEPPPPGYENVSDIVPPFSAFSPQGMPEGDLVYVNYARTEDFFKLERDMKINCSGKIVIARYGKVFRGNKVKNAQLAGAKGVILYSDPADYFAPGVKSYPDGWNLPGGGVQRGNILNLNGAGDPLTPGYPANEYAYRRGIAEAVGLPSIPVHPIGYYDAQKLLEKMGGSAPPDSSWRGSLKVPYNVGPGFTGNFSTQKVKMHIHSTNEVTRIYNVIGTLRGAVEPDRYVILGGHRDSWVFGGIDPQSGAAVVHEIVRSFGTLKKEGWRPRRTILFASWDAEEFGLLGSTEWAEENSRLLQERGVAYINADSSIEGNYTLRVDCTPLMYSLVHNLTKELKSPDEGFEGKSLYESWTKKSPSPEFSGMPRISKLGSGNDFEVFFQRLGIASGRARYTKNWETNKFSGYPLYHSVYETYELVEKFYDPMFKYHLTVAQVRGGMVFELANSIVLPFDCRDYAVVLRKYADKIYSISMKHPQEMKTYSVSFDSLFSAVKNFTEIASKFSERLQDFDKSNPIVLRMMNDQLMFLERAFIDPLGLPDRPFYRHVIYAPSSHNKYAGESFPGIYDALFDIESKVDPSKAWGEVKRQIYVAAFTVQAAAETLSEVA

Compound `CC(C)CCC[C@@H](C)[C@H]1CC[C@H]2[C@@H]3CCC4C[C@@H](OCCCOP(=O)(O)N[C@@H](CCC(=O)O)C(=O)O)CC[C@]4(C)[C@H]3CC[C@]12C` (stereo partly specified) has an IC50 of 125 nM.

`C[C@]12CC[C@@H]3c4ccc(OC(=O)c5ccccc5)cc4CC[C@H]3[C@@H]1CC[C@@H]2OCCCOP(=O)(O)N[C@@H](CCC(=O)O)C(=O)O` was tested, and the IC50 was 572 nM.

Work on `C[C@]12CC[C@H](OCCCOP(=O)(O)N[C@@H](CCC(=O)O)C(=O)O)C[C@@H]1CC[C@@H]1[C@@H]2CC[C@]2(C)C(=O)CC[C@@H]12` yielded an IC50 of 438 nM.

Work on `CC(C)CCC[C@@H](C)[C@H]1CC[C@H]2[C@@H]3CCC4C[C@@H](OP(=O)(O)N[C@@H](CCC(=O)O)C(=O)O)CC[C@]4(C)[C@H]3CC[C@]12C` (stereo partly specified) yielded an IC50 of 435 nM.

Compound `C[C@]12CC[C@@H]3c4ccc(OCCCOP(=O)(O)N[C@@H](CCC(=O)O)C(=O)O)cc4CC[C@H]3[C@@H]1CCC2=O` has an IC50 of 140 nM.

`C[C@]12CC[C@H](OP(=O)(O)N[C@@H](CCC(=O)O)C(=O)O)C[C@@H]1CC[C@@H]1[C@@H]2CC[C@]2(C)C(=O)CC[C@@H]12` gave an IC50 of 569 nM.
